Measured values reported in patent US10040781B2, “Tank-binding kinase inhibitor compounds” (Gilead Sciences, Inc., priority 2014, dated 2018).

Experiments:
IKKε = IKKε (Homo sapiens (Human), UniProt Q14164); experiment: IKKε TR-FRET enzymatic assay; assay type: biochemical; settings: read-out: IKKe IC50
hJAK2 = hJAK2 (Homo sapiens (Human), UniProt O60674); experiment: hJAK2 LANCE TR-FRET enzymatic assay; assay type: biochemical; settings: read-out: JAK2 IC50
TBK1 = TBK1 (Homo sapiens (Human), UniProt Q9UHD2); experiment: TBK1 TR-FRET enzymatic assay;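 note: phosphorylation of a biotinylated Ser/Thr peptide by purified full-length recombinant TBK1, read by TR-FRET after 240 min at 25 °C, IC50 is the geometric mean of at least four runs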
TBK1, sequence (Q9UHD2 whole entry): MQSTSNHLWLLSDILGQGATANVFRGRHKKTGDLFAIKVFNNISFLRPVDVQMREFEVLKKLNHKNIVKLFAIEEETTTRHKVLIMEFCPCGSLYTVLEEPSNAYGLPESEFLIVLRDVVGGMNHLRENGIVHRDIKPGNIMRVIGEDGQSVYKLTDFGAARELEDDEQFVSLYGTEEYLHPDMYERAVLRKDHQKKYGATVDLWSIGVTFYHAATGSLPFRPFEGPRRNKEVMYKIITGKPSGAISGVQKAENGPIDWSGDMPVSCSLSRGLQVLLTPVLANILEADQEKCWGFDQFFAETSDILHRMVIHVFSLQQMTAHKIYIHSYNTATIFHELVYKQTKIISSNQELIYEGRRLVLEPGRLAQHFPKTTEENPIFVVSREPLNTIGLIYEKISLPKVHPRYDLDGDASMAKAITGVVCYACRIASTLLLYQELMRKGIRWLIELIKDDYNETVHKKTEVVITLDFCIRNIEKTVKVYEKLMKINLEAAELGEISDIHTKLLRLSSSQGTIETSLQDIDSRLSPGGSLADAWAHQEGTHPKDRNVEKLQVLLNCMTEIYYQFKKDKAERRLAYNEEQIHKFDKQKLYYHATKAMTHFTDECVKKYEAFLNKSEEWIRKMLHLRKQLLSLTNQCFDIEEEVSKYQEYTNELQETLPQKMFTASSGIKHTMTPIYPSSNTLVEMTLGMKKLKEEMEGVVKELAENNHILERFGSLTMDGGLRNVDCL

IKKε, sequence (Q14164 whole entry): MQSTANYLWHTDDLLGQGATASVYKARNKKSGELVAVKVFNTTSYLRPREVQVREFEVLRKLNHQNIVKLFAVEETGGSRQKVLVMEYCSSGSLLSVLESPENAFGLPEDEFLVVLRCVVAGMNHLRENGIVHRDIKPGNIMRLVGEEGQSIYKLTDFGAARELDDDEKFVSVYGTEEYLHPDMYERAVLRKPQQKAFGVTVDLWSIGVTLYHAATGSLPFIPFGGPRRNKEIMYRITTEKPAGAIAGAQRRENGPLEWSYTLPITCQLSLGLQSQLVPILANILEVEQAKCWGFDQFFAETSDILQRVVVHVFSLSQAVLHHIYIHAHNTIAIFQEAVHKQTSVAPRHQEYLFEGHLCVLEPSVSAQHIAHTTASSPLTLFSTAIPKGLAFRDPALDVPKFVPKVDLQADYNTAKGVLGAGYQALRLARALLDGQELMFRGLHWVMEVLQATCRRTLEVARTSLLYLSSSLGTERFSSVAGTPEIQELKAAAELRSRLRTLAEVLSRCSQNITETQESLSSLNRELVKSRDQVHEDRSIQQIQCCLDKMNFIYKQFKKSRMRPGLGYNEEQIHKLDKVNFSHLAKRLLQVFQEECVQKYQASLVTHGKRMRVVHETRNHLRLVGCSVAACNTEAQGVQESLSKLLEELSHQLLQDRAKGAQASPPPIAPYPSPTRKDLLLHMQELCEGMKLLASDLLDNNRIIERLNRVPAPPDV
hJAK2, sequence (O60674 whole entry): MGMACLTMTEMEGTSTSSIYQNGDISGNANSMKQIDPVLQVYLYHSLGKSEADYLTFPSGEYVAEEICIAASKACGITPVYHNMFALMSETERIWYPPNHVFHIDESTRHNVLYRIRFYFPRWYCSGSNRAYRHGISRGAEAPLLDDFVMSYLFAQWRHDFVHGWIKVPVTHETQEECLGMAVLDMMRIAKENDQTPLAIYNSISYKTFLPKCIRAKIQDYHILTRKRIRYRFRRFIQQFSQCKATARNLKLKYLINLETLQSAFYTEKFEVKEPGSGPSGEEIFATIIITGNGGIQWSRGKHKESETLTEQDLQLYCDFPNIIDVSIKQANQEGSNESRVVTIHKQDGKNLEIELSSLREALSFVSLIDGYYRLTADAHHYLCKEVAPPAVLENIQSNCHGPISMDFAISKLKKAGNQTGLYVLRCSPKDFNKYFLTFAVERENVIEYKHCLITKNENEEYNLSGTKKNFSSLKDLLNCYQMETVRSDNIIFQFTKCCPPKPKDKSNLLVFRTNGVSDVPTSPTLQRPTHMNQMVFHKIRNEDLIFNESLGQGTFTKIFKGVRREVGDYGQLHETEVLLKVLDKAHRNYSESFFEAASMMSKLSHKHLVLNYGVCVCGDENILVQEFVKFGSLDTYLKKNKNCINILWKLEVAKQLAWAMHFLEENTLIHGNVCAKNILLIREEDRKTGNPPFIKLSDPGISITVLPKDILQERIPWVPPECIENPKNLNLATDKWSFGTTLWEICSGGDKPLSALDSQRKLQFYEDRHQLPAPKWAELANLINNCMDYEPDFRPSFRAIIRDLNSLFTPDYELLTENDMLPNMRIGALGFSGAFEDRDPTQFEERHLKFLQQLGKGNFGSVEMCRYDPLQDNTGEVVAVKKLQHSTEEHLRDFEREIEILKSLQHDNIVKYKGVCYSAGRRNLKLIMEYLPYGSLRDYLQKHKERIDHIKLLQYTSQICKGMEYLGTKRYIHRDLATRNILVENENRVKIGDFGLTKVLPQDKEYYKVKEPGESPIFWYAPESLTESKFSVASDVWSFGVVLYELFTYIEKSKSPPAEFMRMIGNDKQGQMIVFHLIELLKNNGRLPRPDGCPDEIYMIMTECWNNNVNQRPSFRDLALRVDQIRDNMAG

| Structure (SMILES) | IC50 (IKKε) [nM] | IC50 (hJAK2) [nM] | IC50 (TBK1) [nM] |
| --- | --- | --- | --- |
| N#Cc1cc(-c2ncnc(Nc3ccc(N4CCN(C5COC5)CC4)cc3)n2)ccc1O[C@H]1CCN(C2COC2)C[C@H]1F [Example 111, 2-(((3R,4S)-3-fluoro-1-(oxetan-3-yl)piperidin-4-yl)oxy)-5-(4-((4-(4-(oxetan-3-yl)piperazin-1-yl)phenyl)amino)-1,3,5-triazin-2-yl)benzonitrile] | 328 | 602 | 146 |
| N#Cc1cc(-c2ncnc(Nc3ccc(N4CCN(C5COC5)CC4)cc3)n2)ccc1OC1CCN(C(=O)[C@H]2CCC(=O)N2)C[C@H]1F (stereo partly drawn) [Example 113, 2-(((3R)-3-fluoro-1-((R)-5-oxopyrrolidine-2-carbonyl)piperidin-4-yl)oxy)-5-(4-((4-(4-(oxetan-3-yl)piperazin-1-yl)phenyl)amino)-1,3,5-triazin-2-yl)benzonitrile] | 100 | 292 | 64 |
| N#Cc1cc(-c2ncnc(Nc3ccc(N4CCN(C5COC5)CC4)cc3)n2)ccc1O[C@H]1CCC(=O)NC1 [Example 114, (S)-5-(4-((4-(4-(oxetan-3-yl)piperazin-1-yl)phenyl)amino)-1,3,5-triazin-2-yl)-2-((6-oxopiperidin-3-yl)oxy)benzonitrile] | 56 | 175 | 20 |
| C[C@H]1C[C@H](Oc2ccc(-c3ncnc(Nc4ccc(N5CCN(C6COC6)CC5)cc4)n3)cc2C#N)[C@H](F)CN1C(=O)CO [Example 115, 2-(((2S,4S,5R)-5-fluoro-1-(2-hydroxyacetyl)-2-methylpiperidin-4-yl)oxy)-5-(4-((4-(4-(oxetan-3-yl)piperazin-1-yl)phenyl)amino)-1,3,5-triazin-2-yl)benzonitrile] | 21 | ≥ 1000 | 12 |
| N#Cc1cc(-c2ncnc(Nc3ccc(N4CCN(C5COC5)CC4)cc3)n2)ccc1O[C@H]1CCN(C(=O)C2CCS(=O)(=O)N2)C[C@H]1F (stereo partly drawn) [Example 118, 2-(((3R,4S)-1-(1,1-dioxidoisothiazolidine-3-carbonyl)-3-fluoropiperidin-4-yl)oxy)-5-(4-((4-(4-(oxetan-3-yl)piperazin-1-yl)phenyl)amino)-1,3,5-triazin-2-yl)benzonitrile] | 11 | 284 | 7 |
| N#Cc1cc(-c2ncnc(Nc3ccc(N4CCN(C5COC5)CC4)cc3)n2)ccc1NC1CCOCC1 [Example 121, 5-(4-((4-(4-(oxetan-3-yl)piperazin-1-yl)phenyl)amino)-1,3,5-triazin-2-yl)-2-((tetrahydro-2H-pyran-4-yl)amino)benzonitrile] | 47 | 32 | 11 |
| COC1CCC(Oc2ccc(-c3ncnc(Nc4ccc(N5CCN(C6COC6)CC5)cc4)n3)cc2C#N)CC1 (stereo not drawn) [Example 122, 2-((4-methoxycyclohexyl)oxy)-5-(4-((4-(4-(oxetan-3-yl)piperazin-1-yl)phenyl)amino)-1,3,5-triazin-2-yl)benzonitrile] | 15 | 402 | 15 |
| C[C@@H](CO)C(=O)N1CC[C@H](Oc2ccc(-c3ncnc(Nc4ccc(N5CCN(C6COC6)CC5)cc4)n3)cc2C#N)[C@H](F)C1 [Example 123, 2-(((3R,4S)-3-fluoro-1-((S)-3-hydroxy-2-methylpropanoyl)piperidin-4-yl)oxy)-5-(4-((4-(4-(oxetan-3-yl)piperazin-1-yl)phenyl)amino)-1,3,5-triazin-2-yl)benzonitrile] | 132 | 546 | 31 |
| C[C@H](CO)C(=O)N1CC[C@H](Oc2ccc(-c3ncnc(Nc4ccc(N5CCN(C6COC6)CC5)cc4)n3)cc2C#N)[C@H](F)C1 [Example 124, 2-(((3R,4S)-3-fluoro-1-((R)-3-hydroxy-2-methylpropanoyl)piperidin-4-yl)oxy)-5-(4-((4-(4-(oxetan-3-yl)piperazin-1-yl)phenyl)amino)-1,3,5-triazin-2-yl)benzonitrile] | 54 | 676 | 15 |
| N#Cc1cc(-c2ncnc(Nc3ccc(N4CCN(C5COC5)CC4)cc3)n2)ccc1O[C@@H]1CCCN(C(=O)CO)C1 [Example 125, (R)-2-((1-(2-hydroxyacetyl)piperidin-3-yl)oxy)-5-(4-((4-(4-(oxetan-3-yl)piperazin-1-yl)phenyl)amino)-1,3,5-triazin-2-yl)benzonitrile] | 86 | 952 | 31 |
| C[C@H](O)C(=O)N1CCC[C@@H](Oc2ccc(-c3ncnc(Nc4ccc(N5CCN(C6COC6)CC5)cc4)n3)cc2C#N)C1 [Example 126, 2-(((R)-1-((S)-2-hydroxypropanoyl)piperidin-3-yl)oxy)-5-(4-((4-(4-(oxetan-3-yl)piperazin-1-yl)phenyl)amino)-1,3,5-triazin-2-yl)benzonitrile] | 111 | ≥ 1000 | 56 |

These reach a lower IC50 (IKKε). Values come first.

| IC50 (IKKε) [nM] | IC50 (hJAK2) [nM] | IC50 (TBK1) [nM] | Structure (SMILES) |
| --- | --- | --- | --- |
| 4 | 375 | 4 | N#Cc1cc(-c2ncnc(Nc3ccc(N4CCN(C5COC5)CC4)cc3)n2)ccc1OC1CCN(C(=O)[C@@H]2CCC(=O)N2)C[C@H]1F (stereo partly drawn) [Example 112, 2-(((3R)-3-fluoro-1-((S)-5-oxopyrrolidine-2-carbonyl)piperidin-4-yl)oxy)-5-(4-((4-(4-(oxetan-3-yl)piperazin-1-yl)phenyl)amino)-1,3,5-triazin-2-yl)benzonitrile] |
| 1 | 146 | 2 | N#Cc1cc(-c2ncnc(Nc3ccc(N4CCN(C5COC5)CC4)cc3)n2)ccc1O[C@H]1CCN(C(=O)[C@@H]2CCC(=O)N2)CC1(F)F [Example 116, 2-(((S)-3,3-difluoro-1-((S)-5-oxopyrrolidine-2-carbonyl)piperidin-4-yl)oxy)-5-(4-((4-(4-(oxetan-3-yl)piperazin-1-yl)phenyl)amino)-1,3,5-triazin-2-yl)benzonitrile] |
| 4 | 342 | 3 | N#Cc1cc(-c2ncnc(Nc3ccc(N4CCN(C5COC5)CC4)cc3)n2)ccc1O[C@H]1CCN(C(=O)[C@@H]2CCCC(=O)N2)C[C@H]1F [Example 117, 2-(((3R,4S)-3-fluoro-1-((S)-6-oxopiperidine-2-carbonyl)piperidin-4-yl)oxy)-5-(4-((4-(4-(oxetan-3-yl)piperazin-1-yl)phenyl)amino)-1,3,5-triazin-2-yl)benzonitrile] |
| 2 | 338 | 6 | CN1CCN(C(=O)c2ccc(Nc3ncnc(-c4ccc(O[C@H]5CCN(C(=O)CO)C[C@H]5F)c(C#N)c4)n3)cc2)CC1 [Example 119, 2-(((3R,4S)-3-fluoro-1-(2-hydroxyacetyl)piperidin-4-yl)oxy)-5-(4-((4-(4-methylpiperazine-1-carbonyl)phenyl)amino)-1,3,5-triazin-2-yl)benzonitrile] |
| 2 | 674 | 4 | C[C@H](O)C(=O)N1CC[C@H](Oc2ccc(-c3ncnc(Nc4ccc(C(=O)N5CCN(C)CC5)cc4)n3)cc2C#N)[C@H](F)C1 [Example 120, 2-(((3R,4S)-3-fluoro-1-((S)-2-hydroxypropanoyl)piperidin-4-yl)oxy)-5-(4-((4-(4-methylpiperazine-1-carbonyl)phenyl)amino)-1,3,5-triazin-2-yl)benzonitrile] |
